Patent US8063209B2, “Phosphonyl ester conjugates as prodrugs” (priority 2004, dated 2011)
Where two headings read alike, the source gives them in different places.

Tests used:
[1] = pH 3-5
[2] = cell and tissue homogenates
hPepT1 = target: T1, hPepT1 (Homo sapiens, UniProt P46059); test: Competitive binding (3H Gly-Sar uptake inhibition) in hPepT1 over-expressing DC5 cells; assay type: cell-based; settings: for affinity for PepT1: DC5 cells over-expressing hPepT1
T1 construct: expressed in transfected cells; host or cells: DC5 cells (hPepT1 over-expressing cell line)
T1 sequence (P46059 1-708): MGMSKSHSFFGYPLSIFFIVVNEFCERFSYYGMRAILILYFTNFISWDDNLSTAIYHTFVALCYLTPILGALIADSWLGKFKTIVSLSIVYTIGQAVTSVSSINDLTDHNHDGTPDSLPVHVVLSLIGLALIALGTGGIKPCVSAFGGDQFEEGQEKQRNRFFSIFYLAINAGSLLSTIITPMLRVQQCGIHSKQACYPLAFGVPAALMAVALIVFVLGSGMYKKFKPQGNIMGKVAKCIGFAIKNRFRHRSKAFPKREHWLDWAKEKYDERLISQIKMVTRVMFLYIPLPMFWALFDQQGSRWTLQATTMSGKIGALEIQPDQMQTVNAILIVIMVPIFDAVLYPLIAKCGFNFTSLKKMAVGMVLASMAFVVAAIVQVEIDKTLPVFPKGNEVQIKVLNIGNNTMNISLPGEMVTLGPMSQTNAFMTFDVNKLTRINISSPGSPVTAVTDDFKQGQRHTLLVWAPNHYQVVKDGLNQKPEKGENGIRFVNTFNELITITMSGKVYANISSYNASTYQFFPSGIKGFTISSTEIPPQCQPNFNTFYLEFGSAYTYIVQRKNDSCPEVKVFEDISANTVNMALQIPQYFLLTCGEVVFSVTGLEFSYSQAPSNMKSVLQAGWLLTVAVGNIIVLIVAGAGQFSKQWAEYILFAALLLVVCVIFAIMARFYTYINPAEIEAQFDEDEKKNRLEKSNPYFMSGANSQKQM
Experimental: Ki values for the cidofovir compounds were determined in the hPepT1 over-expressing cell line (DC5) using ^3H glycine-sarcosine (Gly-Sar). DC5 cells were plated (12,000 cells/well) in 96-well tissue culture plates (Falcon) and allowed to grow for 4 days. The cells were washed once with 200 μl of uptake buffer and aspirated. The plates were cooled to 4° C. and 25 μl of uptake buffer containing 50 μM Gly-Sar (0.5 μCi/ml) was added. The uptake buffer also contained the test cidofovir-based compounds over a range of concentrations. Uptake was initiated by placing the plate in a shaker water bath (37° C.) and terminated at 10 min by rapid washing with multiple changes of 4° C. PBS (Sigma). The radioactive peptide was extracted from the cell layer with 200 μl of methanol:water (1:1) and counted in 4 ml of CytoScint ESTM scintillation cocktail (ICN). Non-linear regression analysis of the data was used to determine the IC50 using the solver function in Microsoft Excel.

[3] = Single pass intestinal perfusion with portal vein blood collection; assay type: in vivo, rat; settings: for Pe-mes (mesenteric permeability): rat in situ single pass intestinal perfusion, portal vein plasma, pH 7.5 buffer
Experimental: Male albino Sprague-Dawley rats, 9-10 weeks old and weighing 250-400 g were used in the study. Prior to each experiment, the rats were fasted for 18 h with free access to water. The rats were anesthetized with an i.m. injection of ketamine/xylazinelbutorphanol (87, 6, and 0.2 mg/kg body weight, respectively). The abdomen was opened by a midline incision of 4-5 cm. A suitable intestinal segment of approximately 10-20 cm was cannulated on two ends and connected to a syringe pump that guided the solution through a water bath of 37° C. This isolated segment was then rinsed with buffer at the respective pH at a flow-rate of 0.5 ml/min in order to clean out any residual debris. A 10 mM HEPES (pH 7.5) buffer containing 135 mM NaCl, 5 mM KCl and 0.01% PEG 4000 was used for the perfusion buffer. The intestinal segments were perfused at a flow rate of approximately […] with these buffers containing test drug and ^14C-PEG 4000 as a non-absorbable marker for measuring water flux. […] Sample analysis for ^14C (PEG-4000) was performed by scintillation counting. For these studies, we also took blood from the portal vein (prehepatic) as described below. After a segment of intestine was cannulated, the portal vein was then immediately cannulated using a 24-gauge Angeocath catheter (Becton Dickinson, Sandy, Utah). The cannula was secured in place using cyanoacrylate glue or surgical tape and connected to an approximately 35 cm long Silastic tubing, which allowed blood to flow into vials placed about 25 cm below the mesenteric vein. The single-pass intestinal perfusion was initiated at this time. Blood flowing out of the mesenteric vein from the isolated intestinal segment was collected directly into vials, centrifuged immediately and plasma was separated and stored at −80° C.
Rat plasma samples were acidified and processed with solid phase extraction. Briefly, a cation exchange solid-phase cartridge (MCX, 30 mg/i. cc, Waters) was activated with 1.0 ml of methanol and equilibrated with 1.0 ml of water. A 500 μl aliquot of rat plasma was acidified and loaded onto the cartridge. After washing with 1.0 ml of 0.1 N HCl and 1.0 ml methanol, the compounds were eluted with 1 ml of 5% NH4OH in methanol. The solvent was evaporated under vacuum and the residue was reconstituted in 200 μl of water. Samples were analyzed using a LC-MS/MS system (Micromass Quattro II, HP 1100). Ten μl of sample was separated with a Cs column (2.1×150 mm) using a mobile phase of 5-10% acetonitrile:water containing 0.5% formic acid.
From the plasma concentration of compound, the mesenteric permeability was determined by substitution into Eq. (1), Flux=(A)(Pe-mes)(Ci) Eq. (1) where Flux is equal to the portal blood flow (estimated at 1 ml/min in the rat) X the steady state mesenteric blood concentration of cidofovir-based compound, A is the absorptive area of the intestine (estimated at 12.56 cm^2 in the rat intestine), Pe-mes is the mesenteric permeability (cm/s), and Ci is the starting concentration of the drug in the perfusate ([…]).

[4] = in vivo; cited from earlier work
[5] = DC5 cells, 50 μM 3H Gly-Sar, 10 min, 37° C., read-out: Gly-Sar inhibition, Ki

| Compound | Ki (hPepT1) [mM] | affinity for PepT1 (hPepT1) | Pe-mes (mesenteric permeability) [3] [cm/s × 10^5] | Ki (hPepT1; [5]) [mM] | further results |
| --- | --- | --- | --- | --- | --- |
| COC(=O)[C@H](COP1(=O)CO[C@@H](Cn2ccc(N)nc2=O)CO1)NC(=O)[C@@H](N)C(C)C (mixture of isomers) [Compound 4, cHPMPC-Val-Ser(OMe)] | 2.7 ± 0.1 | significant affinity | 1.18 |  | stability in buffer [1]: stable; release of active drug [2]: rapidly released the active drug; transport on co-dosing with bestatin ([3]; co-dosing with the aminopeptidase inhibitor bestatin): enhanced transport; transport on co-perfusion with Gly-Sar ([3]; in situ perfusion model, co-perfusion with Gly-Sar): almost completely suppressed; transport vs. the parent drug ([3]; rat model): enhanced transport |
| COC(=O)[C@H](COP1(=O)CO[C@@H](Cn2ccc(N)nc2=O)CO1)NC(=O)[C@@H](N)CC(C)C (mixture of isomers) [Compound 7, cHPMPC-Leu-Ser(OMe)] |  | significant affinity | 0.48 | 5.4 ± 0.2 |  |
| Nc1ccn(C[C@@H](CO)OCP(=O)(O)O)c(=O)n1 [Cidofovir, (S)-1-(3-hydroxy-2-phosphonylmethoxypropyl)cytosine, reference compound] |  |  | 0.052 | 10.8 ± 0.3 |  |
| COC(=O)C(COP1(=O)COC(Cn2ccc(N)nc2=O)CO1)NC(=O)C(C)N (stereo not shown) [Compound 6, cHPMPC-Ala-Ser(OMe)] | 3.4 ± 0.2 | significant affinity | 0.98 |  |  |
| Nc1ccn(C[C@H]2COP(=O)(O)CO2)c(=O)n1 [Cyclic cidofovir, reference compound] |  |  | 0.003 | 10.7 ± 0.2 |  |
| CC(C)[C@H](N)C(=O)OCCOCn1cnc2c(=O)[nH]c(N)nc21 [Valacyclovir] |  |  |  |  | bioavailability enhancement compared to parent drug acyclovir [4]: 3- to 5 fold |
